In PubChem BioAssay (NCI):
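Dose response: 5 concentrations. Exposure: 48 h. Format: 96-well plates. Endpoint: linear interpolation; highest concentration if not reached. TGI: concentration producing complete growth inhibition.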

How the values were obtained:
Experiment in all cases: NCI-60 cell line screen, 48 h
UO-31 renal = tested on: UO-31 renal
NCI/ADR-RES ovarian = tested on: NCI/ADR-RES ovarian
BT-549 breast = tested on: BT-549 breast
HCC-2998 colon = tested on: HCC-2998 colon
DU-145 prostate = tested on: DU-145 prostate
MDA-MB-435 = tested on: MDA-MB-435
KM12 colon = tested on: KM12 colon
SNB-19 CNS = tested on: SNB-19 CNS
HCT-15 colon = tested on: HCT-15 colon
U251 CNS = tested on: U251 CNS
T-47D breast = tested on: T-47D breast
NCI-H460 lung = tested on: NCI-H460 lung
RPMI-8226 leukemia = tested on: RPMI-8226 leukemia
RXF 393 renal = tested on: RXF 393 renal
HS 578T breast = tested on: HS 578T breast
786-0 renal = tested on: 786-0 renal
MALME-3M melanoma = tested on: MALME-3M melanoma
SW-620 colon = tested on: SW-620 colon
HOP-62 NSCLC = tested on: HOP-62 NSCLC
COLO 205 colon = tested on: COLO 205 colon
UACC-257 melanoma = tested on: UACC-257 melanoma
HCT-116 colon = tested on: HCT-116 colon
NCI-H226 lung = tested on: NCI-H226 lung
OVCAR-3 ovarian = tested on: OVCAR-3 ovarian
MCF7 breast = tested on: MCF7 breast
IGROV1 ovarian = tested on: IGROV1 ovarian
HOP-92 NSCLC = tested on: HOP-92 NSCLC
UACC-62 melanoma = tested on: UACC-62 melanoma
OVCAR-8 ovarian = tested on: OVCAR-8 ovarian
M14 melanoma = tested on: M14 melanoma
A549 NSCLC = tested on: A549 NSCLC
OVCAR-5 ovarian = tested on: OVCAR-5 ovarian
TK-10 renal = tested on: TK-10 renal
LOX IMVI melanoma = tested on: LOX IMVI melanoma
SR leukemia = tested on: SR leukemia
SF-539 CNS = tested on: SF-539 CNS
EKVX NSCLC = tested on: EKVX NSCLC
MDA-N = tested on: MDA-N
HT29 colon = tested on: HT29 colon
MOLT-4 leukemia = tested on: MOLT-4 leukemia
NCI-H23 lung = tested on: NCI-H23 lung
ACHN renal = tested on: ACHN renal
NCI-H522 lung = tested on: NCI-H522 lung
SK-MEL-5 melanoma = tested on: SK-MEL-5 melanoma
HL-60(TB) leukemia = tested on: HL-60(TB) leukemia
K-562 leukemia = tested on: K-562 leukemia
SK-MEL-2 melanoma = tested on: SK-MEL-2 melanoma
PC-3 prostate = tested on: PC-3 prostate
SK-OV-3 ovarian = tested on: SK-OV-3 ovarian
CCRF-CEM leukemia = tested on: CCRF-CEM leukemia
SF-268 CNS = tested on: SF-268 CNS
A498 renal = tested on: A498 renal
SF-295 CNS = tested on: SF-295 CNS
SN12C renal = tested on: SN12C renal
SK-MEL-28 melanoma = tested on: SK-MEL-28 melanoma
MDA-MB-231 breast = tested on: MDA-MB-231 breast
SNB-75 CNS = tested on: SNB-75 CNS
CAKI-1 renal = tested on: CAKI-1 renal

Measured: TGI

Cc1ccc(S(N)(=O)=O)cc1
> 1000 µM: UO-31 renal | NCI/ADR-RES ovarian | BT-549 breast | HCC-2998 colon | DU-145 prostate | MDA-MB-435 | KM12 colon | SNB-19 CNS | HCT-15 colon | U251 CNS | T-47D breast | NCI-H460 lung | RPMI-8226 leukemia | RXF 393 renal | HS 578T breast | 786-0 renal | MALME-3M melanoma | SW-620 colon | HOP-62 NSCLC | COLO 205 colon | UACC-257 melanoma | HCT-116 colon | NCI-H226 lung | OVCAR-3 ovarian | MCF7 breast | IGROV1 ovarian | HOP-92 NSCLC | UACC-62 melanoma | OVCAR-8 ovarian | M14 melanoma | A549 NSCLC | OVCAR-5 ovarian | TK-10 renal | LOX IMVI melanoma | SR leukemia | SF-539 CNS | EKVX NSCLC | MDA-N | HT29 colon | MOLT-4 leukemia | NCI-H23 lung | ACHN renal | NCI-H522 lung | SK-MEL-5 melanoma | HL-60(TB) leukemia | K-562 leukemia | SK-MEL-2 melanoma | PC-3 prostate | SK-OV-3 ovarian | CCRF-CEM leukemia | SF-268 CNS | A498 renal | SF-295 CNS | SN12C renal

Cc1c(NC(=S)Nc2ccc(Cl)cc2)c(=O)n(-c2ccccc2)n1C
> 100 µM: UO-31 renal | NCI/ADR-RES ovarian | SK-MEL-28 melanoma | BT-549 breast | HCC-2998 colon | DU-145 prostate | MDA-MB-435 | KM12 colon | SNB-19 CNS | HCT-15 colon | U251 CNS | NCI-H460 lung | RPMI-8226 leukemia | RXF 393 renal | HS 578T breast | MDA-MB-231 breast | 786-0 renal | MALME-3M melanoma | SW-620 colon | HOP-62 NSCLC | COLO 205 colon | UACC-257 melanoma | HCT-116 colon | NCI-H226 lung | OVCAR-3 ovarian | MCF7 breast | IGROV1 ovarian | SNB-75 CNS | HOP-92 NSCLC | UACC-62 melanoma | M14 melanoma | A549 NSCLC | OVCAR-5 ovarian | TK-10 renal | LOX IMVI melanoma | SR leukemia | SF-539 CNS | EKVX NSCLC | MDA-N | HT29 colon | MOLT-4 leukemia | NCI-H23 lung | ACHN renal | NCI-H522 lung | SK-MEL-5 melanoma | HL-60(TB) leukemia | K-562 leukemia | CAKI-1 renal | PC-3 prostate | SK-OV-3 ovarian | CCRF-CEM leukemia | SF-268 CNS | A498 renal | SF-295 CNS
